According to ChEMBL document CHEMBL4613325, “Design of Development Candidate eFT226, a First in Class Inhibitor of Eukaryotic Initiation Factor 4A RNA Helicase” (J Med Chem, 2020):

Experiments:
[1] = biological target: T1, Eukaryotic initiation factor 4A-I (Homo sapiens, UniProt P60842); assay: Inhibition of eIF4A1 in human MDA-MB-231 cells assessed as inhibition of cellular-translation incubated for 4 hrs by specific tandem sequence motif repeat CAACAA in 5'- UTR containing luciferase reporter gene assay; assay type: cell-based
T1 sequence (P60842 whole entry): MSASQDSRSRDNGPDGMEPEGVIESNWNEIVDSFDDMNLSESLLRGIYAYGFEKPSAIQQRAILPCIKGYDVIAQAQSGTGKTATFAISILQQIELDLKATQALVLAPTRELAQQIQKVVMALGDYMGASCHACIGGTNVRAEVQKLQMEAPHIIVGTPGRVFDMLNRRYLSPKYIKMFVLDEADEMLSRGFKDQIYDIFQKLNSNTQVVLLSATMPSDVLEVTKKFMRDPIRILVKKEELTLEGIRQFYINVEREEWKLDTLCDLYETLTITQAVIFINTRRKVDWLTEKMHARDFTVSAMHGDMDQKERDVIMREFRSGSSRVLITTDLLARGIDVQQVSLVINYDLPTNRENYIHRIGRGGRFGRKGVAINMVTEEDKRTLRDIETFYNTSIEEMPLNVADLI

[2] = biological target: T1, Eukaryotic initiation factor 4A-I; assay: Inhibition of eIF4A1 in human MDA-MB-231 cells assessed as inhibition of cellular-translation incubated for 4 hrs by specific tandem sequence motif repeat AGAGAG in 5'- UTR containing luciferase reporter gene assay; assay type: cell-based
[3] = biological target: T1, Eukaryotic initiation factor 4A-I; assay: Inhibition of eIF4A1 in human MDA-MB-231 cells assessed as inhibition of cellular-translation incubated for 4 hrs by specific tandem sequence motif repeat CCGCCG in 5'- UTR containing luciferase reporter gene assay; assay type: cell-based
[4] = biological target: T1, Eukaryotic initiation factor 4A-I; assay: Inhibition of eIF4A1 in human MDA-MB-231 cells assessed as inhibition of cellular-translation incubated for 4 hrs by specific tandem sequence motif repeat GGCGGC in 5'- UTR containing luciferase reporter gene assay; assay type: cell-based
[5] = biological target: hERG (KCNH2) (Homo sapiens, UniProt Q12809); assay: Inhibition of human ERG at 10 uM by patch-clamp assay relative to control
Chain of hERG (KCNH2) (Q12809 whole entry): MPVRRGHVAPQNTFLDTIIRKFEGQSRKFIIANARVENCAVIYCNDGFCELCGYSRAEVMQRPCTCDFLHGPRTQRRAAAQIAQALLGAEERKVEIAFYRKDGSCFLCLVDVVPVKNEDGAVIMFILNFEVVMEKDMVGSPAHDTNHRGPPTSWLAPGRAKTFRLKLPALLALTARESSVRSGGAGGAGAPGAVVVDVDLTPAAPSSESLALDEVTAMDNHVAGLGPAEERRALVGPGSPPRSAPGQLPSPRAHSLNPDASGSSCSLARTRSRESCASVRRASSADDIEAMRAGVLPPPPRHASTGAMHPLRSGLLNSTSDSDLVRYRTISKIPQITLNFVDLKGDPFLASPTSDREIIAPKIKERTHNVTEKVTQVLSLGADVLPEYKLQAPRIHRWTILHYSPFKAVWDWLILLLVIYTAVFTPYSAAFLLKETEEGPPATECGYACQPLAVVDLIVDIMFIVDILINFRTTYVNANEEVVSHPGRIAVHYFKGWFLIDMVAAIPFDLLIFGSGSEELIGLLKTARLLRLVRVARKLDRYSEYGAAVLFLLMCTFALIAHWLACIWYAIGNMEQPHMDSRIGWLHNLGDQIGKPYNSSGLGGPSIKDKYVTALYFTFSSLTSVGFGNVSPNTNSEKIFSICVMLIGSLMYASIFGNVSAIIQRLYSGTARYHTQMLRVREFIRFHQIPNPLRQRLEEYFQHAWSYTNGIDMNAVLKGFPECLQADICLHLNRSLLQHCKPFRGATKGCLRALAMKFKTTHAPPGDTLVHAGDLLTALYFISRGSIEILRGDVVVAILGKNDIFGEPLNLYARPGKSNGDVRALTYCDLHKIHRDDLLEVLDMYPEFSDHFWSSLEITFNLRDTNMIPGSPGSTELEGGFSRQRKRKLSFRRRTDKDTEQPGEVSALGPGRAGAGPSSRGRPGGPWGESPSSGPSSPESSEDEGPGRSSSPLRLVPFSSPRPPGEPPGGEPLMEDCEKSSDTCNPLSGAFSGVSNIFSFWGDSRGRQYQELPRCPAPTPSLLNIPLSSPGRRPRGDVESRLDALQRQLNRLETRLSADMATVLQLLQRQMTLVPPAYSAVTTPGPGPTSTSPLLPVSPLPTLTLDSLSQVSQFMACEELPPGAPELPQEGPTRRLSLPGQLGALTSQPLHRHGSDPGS

[6] = Efflux ratio in human Caco2 cells at 10 uM by LC/MS/MS analysis
[7] = Stability in rat liver microsomes assessed as parent compound remaining at 1 uM pre-incubated for 10 mins before NADPH addition and measured after 30 mins by LC/MS/MS analysis; assay type: ADME, Microsome; settings: read-out: Stability
[8] = Apparent permeability from apical to basolateral side in human Caco2 cells at 10 uM by LC/MS/MS analysis
[9] = Stability in human liver microsomes assessed as parent compound remaining at 1 uM pre-incubated for 10 mins before NADPH addition and measured after 30 mins by LC/MS/MS analysis; assay type: ADME, Microsome; settings: read-out: Stability
[10] = Volume of distribution at steady state in iv dosed rat; assay type: ADME, organism-based; settings: in vivo, read-out: Vdss
[11] = AUC in iv dosed rat; assay type: ADME, organism-based; settings: in vivo
[12] = Clearance in iv dosed rat; assay type: ADME, organism-based; settings: in vivo
[13] = Half life in iv dosed rat; assay type: ADME, organism-based; settings: in vivo
[14] = test system: MDA-MB-231; assay: Antiproliferative activity against human MDA-MB-231 cells assessed as reduction in cell proliferation incubated for 72 hrs by CellTiter-Glo reagent based assay; assay type: functional; settings: MDA-MB-231, 72 h
[15] = physchem

SMILES	inhibition at 10 µM [5] [%]	remaining at 0.5 h, 1 µM [7] [%]	remaining at 0.5 h, 1 µM [9] [%]	IC50 [14] [µM]	efflux ratio at 10 µM ([6]; Caco-2)	Papp A→B at 10 µM ([8]; Caco-2) [×10⁻⁶ cm/s]	further results
C[C@H]1C[C@@]2(O[C@H]3C[C@H]4[C@@H]5CC[C@H]6C[C@H](O)CC[C@]6(C)[C@H]5[C@@H](O)C[C@]4(C)[C@H]3[C@@]2(C)O)OC1(C)C [HIPPURISTANOL]							IC50 [1]: 0.204 µM; IC50 [2]: 0.426 µM; IC50 [3]: 0.21 µM; IC50 [4]: 0.369 µM
COc1cncc2c1[C@]1(O)[C@H](O)[C@H](CN(C)C)[C@@H](c3ccccc3)[C@]1(c1ccc(C#N)cc1)O2 (stereo in doubt; (+)-37)	11	72	75				Ratio ([6]; caco-2, 10 µM, 10 µM): 23; Papp ([8]; caco-2, 10 µM, 10 µM): 0.2 ×10⁻⁶ cm/s
COc1nc(C#N)cc2c1[C@]1(O)[C@H](O)[C@H](CN(C)C)[C@@H](c3ccccc3)[C@]1(c1ccc(C#N)cc1)O2				0.015			Vd [10]: 10.3 L/kg; AUC [11]: 730 ng·h/mL; clearance [12]: 26 mL/min/kg; half-life [13]: 11 h
COc1cncc2c1[C@]1(O)[C@H](O)[C@H](CN3[C@@H]4CC[C@H]3COC4)[C@@H](c3ccccc3)[C@]1(c1ccc(C#N)cc1)O2		51	51	0.101	5.3	1.9	
COc1cncc2c1[C@]1(O)[C@H](O)[C@H](C(=O)N(C)C)[C@@H](c3ccccc3)[C@]1(c1ccc(C#N)cc1)O2				0.033	5	0.65	Vd [10]: 1.1 L/kg; AUC [11]: 950 ng·h/mL; clearance [12]: 18 mL/min/kg; half-life [13]: 2 h
COc1cncc2c1[C@]1(O)[C@H](O)[C@H](CN(C)C)[C@@H](c3ccccc3)[C@]1(c1ccc(C#N)cc1)O2.Cl							solubility thermodynamic [15]: > 20 mg/mL
CCN(CC)C[C@H]1[C@@H](O)[C@@]2(O)c3c(OC)cncc3O[C@@]2(c2ccc(C#N)cc2)[C@@H]1c1ccccc1	40	76	73	0.062	35	0.3	
COc1cc2c(c(OC)n1)[C@]1(O)[C@H](O)[C@H](CN(C)C)[C@@H](c3ccccc3)[C@]1(c1ccc(C#N)cc1)O2.Cl							solubility thermodynamic [15]: > 20 mg/mL
COc1cncc2c1[C@]1(O)[C@H](O)[C@H](CN3CC(F)(F)C3)[C@@H](c3ccccc3)[C@]1(c1ccc(C#N)cc1)O2	< 10			0.208	5.7	1.9	
COc1cncc2c1[C@]1(O)[C@H](O)[C@H](CN3CCC(F)(F)CC3)[C@@H](c3ccccc3)[C@]1(c1ccc(C#N)cc1)O2	30	42	45	0.158	1.7	4.8	
CNC(=O)[C@H]1[C@@H](O)[C@@]2(O)c3ncc(Cl)cc3O[C@@]2(c2ccc(C#N)cc2)[C@@H]1c1ccccc1				0.032			Papp A→B at 10 µM ([8]; Caco-2, Papp): 0.5 ×10⁻⁶ cm/s
COc1cncc2c1[C@]1(O)[C@H](O)[C@H](CN3CCCCC3)[C@@H](c3ccccc3)[C@]1(c1ccc(C#N)cc1)O2		56	81	0.05			
C[C@@H]1C[C@@H]([C@H](O)CC2CC(=O)NC(=O)C2)C(=O)[C@@H](C)C1 [CYCLOHEXIMIDE]							IC50 [1]: 0.142 µM; IC50 [2]: 0.226 µM; IC50 [3]: 0.087 µM; IC50 [4]: 0.101 µM
COc1cncc2c1[C@]1(O)[C@H](O)[C@H](CNC(C)(C)C)[C@@H](c3ccccc3)[C@]1(c1ccc(C#N)cc1)O2	< 10	92	99	0.301			
CN(C)C(=O)[C@H]1[C@@H](O)[C@@]2(O)c3ncc(Cl)cc3O[C@@]2(c2ccc(C#N)cc2)[C@@H]1c1ccccc1				0.087		1.8	
CNC[C@H]1[C@@H](O)[C@@]2(O)c3c(OC)cncc3O[C@@]2(c2ccc(C#N)cc2)[C@@H]1c1ccccc1 (racemic)	< 10	90	98	0.482			efflux ratio at 10 µM ([6]; Caco-2, Ratio): 3.9; Papp A→B at 10 µM ([8]; Caco-2, Papp): 0.3 ×10⁻⁶ cm/s
COc1cncc2c1[C@]1(O)[C@H](O)[C@H](CCN(C)C)[C@@H](c3ccccc3)[C@]1(c1ccc(C#N)cc1)O2 (racemic)	11	77	75	0.143	27	0.1	
COc1cncc2c1[C@]1(O)[C@H](O)[C@H](CN)[C@@H](c3ccccc3)[C@]1(c1ccc(C#N)cc1)O2 (racemic)	11	104	106	0.211	4	0.11	
COc1cncc2c1[C@]1(O)[C@H](O)[C@H](CN3CC4(COC4)C3)[C@@H](c3ccccc3)[C@]1(c1ccc(C#N)cc1)O2		74	81	0.124	41	0.1	
COc1cncc2c1[C@]1(O)[C@H](O)[C@H](CN3CCOCC3)[C@@H](c3ccccc3)[C@]1(c1ccc(C#N)cc1)O2	< 10	52	40	0.121			efflux ratio at 10 µM ([6]; Caco-2, Ratio): 5.3; Papp A→B at 10 µM ([8]; Caco-2, Papp): 1.5 ×10⁻⁶ cm/s
N#Cc1ccc([C@@]23Oc4cc(Cl)cnc4[C@]2(O)[C@H](O)[C@H](C(N)=O)[C@H]3c2ccccc2)cc1				0.09		0.5	
COc1cncc2c1[C@]1(O)[C@H](O)[C@H](C(=O)N(C)C)[C@@H](c3ccccc3)[C@]1(c1ccc(C#N)cc1)O2.Cl							solubility thermodynamic [15]: 0.22 mg/mL
COc1cncc2c1[C@]1(O)[C@H](O)[C@H](CN(C)C(C)(C)C)[C@@H](c3ccccc3)[C@]1(c1ccc(C#N)cc1)O2	16	77	61	0.14	57	0.1	
COc1cncc2c1[C@]1(O)[C@H](O)[C@H](CN(C)CC(F)(F)F)[C@@H](c3ccccc3)[C@]1(c1ccc(C#N)cc1)O2		< 1	< 1	0.196	1.3	7.1	
COc1cncc2c1[C@]1(O)[C@H](O)[C@H](CN3[C@@H]4CCC[C@H]3CC4)[C@@H](c3ccccc3)[C@]1(c1ccc(C#N)cc1)O2		68	62	0.143	35	0.5	
COc1ccc([C@@]23Oc4cc(C#N)cnc4[C@]2(O)[C@H](O)[C@H](C(=O)N(C)C)[C@H]3c2ccccc2)cc1				0.601			
COc1ccc([C@@]23Oc4cc(OC)cc(OC)c4[C@]2(O)[C@H](O)[C@H](C(=O)N(C)C)[C@H]3c2ccccc2)cc1 [ROCAGLAMIDE]				0.02			
COc1ccc2c(c1)O[C@@]1(c3ccc(C#N)cc3)[C@H](c3ccccc3)[C@@H](C(=O)N(C)C)[C@@H](O)[C@@]21O (racemic)				0.068			
COc1cncc2c1[C@]1(O)[C@H](O)[C@H](CN(C)CC(F)F)[C@@H](c3ccccc3)[C@]1(c1ccc(C#N)cc1)O2	11	< 1	1	0.25	3.2	2.6	
